Assay results as given in patent publication US4067986A, “Novel penicillanic acid” (Gist-Brocades N.V., priority 1974, dated 1978).
Values after ≈ are worked out from the molar mass of the structure shown.

Tests used:
Format in all cases: cell-based
[1] = system: Streptococcus haemolyticus A 1088; assay: MIC, agar serial dilution test; settings: A1088
[2] = system: Diplococcus pneumoniae L 54; assay: MIC, agar serial dilution test; settings: Streptococcus pneumoniae, L54
Haemophilus suis A 2096 [3] = assay: MIC, agar serial dilution test; settings: A2096
[4] = system: Salmonella typhimurium R 172; assay: MIC, agar serial dilution test; settings: Salmonella enterica
[5] = system: Pseudomonas aeruginosa H 10; assay: MIC, agar serial dilution test; settings: H10
[6] = system: Pseudomonas aeruginosa 2396; assay: MIC, agar serial dilution test
[7] = system: Pseudomonas aeruginosa A 1058; assay: MIC, agar serial dilution test; settings: A1058
Proteus rettgeri A 821 = assay: MIC, agar serial dilution test; settings: Providencia rettgeri, A821
Proteus mirabilis H 3 = assay: MIC, agar serial dilution test; settings: H3
Proteus mirabilis L 93 = assay: MIC, agar serial dilution test; settings: L93
Proteus mirabilis A 1200 = assay: MIC, agar serial dilution test; settings: A1200
[8] = system: Streptococcus faecalis L 80; assay: MIC, agar serial dilution test; settings: Enterococcus faecalis, L80
[9] = system: Pasteurella multocida A 723; assay: MIC, agar serial dilution test; settings: A723
[10] = system: Klebsiella pneumoniae A 809; assay: MIC, agar serial dilution test; settings: A809
Haemophilus suis A 2096 [11] = assay: MIC, micro serial dilution test; settings: A2096, micro serial dilution test (brackets)

| Compound | MIC [1] | MIC [2] | MIC (Haemophilus suis A 2096 [3]) | MIC [4] | MIC [5] | MIC [6] | MIC [7] | MIC (Proteus rettgeri A 821) | MIC (Proteus mirabilis H 3) | MIC (Proteus mirabilis L 93) | MIC (Proteus mirabilis A 1200) | MIC [8] | MIC [9] | MIC [10] | MIC (Haemophilus suis A 2096 [11]) |
| --- | --- | --- | --- | --- | --- | --- | --- | --- | --- | --- | --- | --- | --- | --- | --- |
| CC1(C)S[C@@H]2[C@H](NC(=O)[C@H](N)c3ccccc3)C(=O)N2[C@H]1C(=O)O [ampicillin] | 0.75 µg/mL (≈ 2.15 µM) | 0.05 µg/mL (≈ 0.143 µM) | 0.15 µg/mL (≈ 0.429 µM) | 3 µg/mL (≈ 8.59 µM) | > 100 µg/mL | 50 µg/mL (≈ 143 µM) | 50 µg/mL (≈ 143 µM) | 3 µg/mL (≈ 8.59 µM) | 3 µg/mL (≈ 8.59 µM) | 3 µg/mL (≈ 8.59 µM) | 3 µg/mL (≈ 8.59 µM) | – | – | – | – |
| CC1(C)S[C@@H]2[C@H](NC(=O)C(C(=O)O)c3ccccc3)C(=O)N2[C@H]1C(=O)O (stereo partly drawn) [carbenicillin] | 0.1 µg/mL (≈ 0.264 µM) | 0.75 µg/mL (≈ 1.98 µM) | – | 6 µg/mL (≈ 15.9 µM) | – | – | 37 µg/mL (≈ 97.8 µM) | 0.3 µg/mL (≈ 0.793 µM) | – | 0.5 µg/mL (≈ 1.32 µM) | – | 25 µg/mL (≈ 66.1 µM) | 0.2 µg/mL (≈ 0.529 µM) | > 100 µg/mL | 0.2 µg/mL (≈ 0.529 µM) |
